According to patent US9187467B2, “2-phenyl benzothiazole linked imidazole compounds as potential anticancer agents and process for the preparation thereof” (Council of Scientific and Industrial Research, priority 2012, dated 2015):
Where two headings read alike, the source gives them in different places.

Tests used:
Assay type in all cases: cell-based, human
[1] = test system: K-562; assay: SRB anticancer assay, leukemia; conditions: Homo sapiens, K562; K-562, 48 h
[2] = test system: SR; assay: SRB anticancer assay, leukemia; conditions: Homo sapiens, 48 h
[3] = test system: NCI-H460; assay: SRB anticancer assay, non-small lung; conditions: Homo sapiens, NCI-H460, 48 h
[4] = test system: NCI-H522; assay: SRB anticancer assay, non-small lung; conditions: Homo sapiens, NCI-H522, 48 h
[5] = test system: KM12; assay: SRB anticancer assay, colon; conditions: Homo sapiens, KM12, 48 h
[6] = test system: SF-295; assay: SRB anticancer assay, CNS; conditions: Homo sapiens, SF-295, 48 h
[7] = test system: SF-539; assay: SRB anticancer assay, CNS; conditions: Homo sapiens, SF-539, 48 h
[8] = test system: U251; assay: SRB anticancer assay, CNS; conditions: Homo sapiens, U-251; U251, 48 h
[9] = test system: OVCAR-3; assay: SRB anticancer assay, ovarian; conditions: Homo sapiens, OVCAR-3, 48 h
[10] = test system: OVCAR-4; assay: SRB anticancer assay, ovarian; conditions: Homo sapiens, OVCAR-4, 48 h
[11] = test system: NCI/ADR-RES; assay: SRB anticancer assay, ovarian; conditions: Homo sapiens, NCI/ADR-RES, 48 h
[12] = test system: 786-0; assay: SRB anticancer assay, renal; conditions: Homo sapiens, 786-0, 48 h
[13] = test system: TK-10; assay: SRB anticancer assay, renal; conditions: Homo sapiens, TK-10, 48 h
[14] = test system: DU-145; assay: SRB anticancer assay, prostate; conditions: Homo sapiens, DU-145, 48 h
[15] = test system: LOX IMVI; assay: SRB anticancer assay, melanoma; conditions: Homo sapiens, 48 h
[16] = test system: SK-MEL-5; assay: SRB anticancer assay, melanoma; conditions: Homo sapiens, SK-MEL-5, 48 h
[17] = test system: Breast cancer cell lines; assay: SRB anticancer assay, panel result; conditions: for mean graph midpoint value (MG_MID) of log10 TGI: total inhibition of net cell growth; for CC50 / GI50: Homo sapiens; for CC50: 50% net cell death, read-out: mean graph midpoint value (MG_MID) of Log10 LC50 (converted)
Method: (§1) The compounds were evaluated for anticancer activity against sixty human cancer cells derived from nine cancer types (leukemia cell line, non-small-cell lung cell line, colon cell line, CNS cell line, melanoma cell line, ovarian cell line, prostate cell line, renal cancer cell line and breast cancer cell line) as shown in Table 1. For each compound, dose response curves for each cell line were measured at a minimum of five concentrations at 10 fold dilutions. A protocol of 48 h continuous drug exposure was used and a sulforhodamine B (SRB) protein assay was used to estimate cell viability or growth.

[18] = test system: CNS cancer cell lines; assay: SRB anticancer assay, panel result; conditions: for mean graph midpoint value (MG_MID) of log10 TGI: total inhibition of net cell growth; for CC50 / GI50: Homo sapiens; for CC50: 50% net cell death, read-out: mean graph midpoint value (MG_MID) of Log10 LC50 (converted)
Method: as §1

[19] = test system: Colon cancer cell lines; assay: SRB anticancer assay, panel result; conditions: for mean graph midpoint value (MG_MID) of log10 TGI: total inhibition of net cell growth; for LC50 / GI50: Homo sapiens; for LC50: 50% net cell death, read-out: mean graph midpoint value (MG_MID) of Log10 LC50 (converted)
Method: as §1

[20] = test system: Leukemia cancer cell lines; assay: SRB anticancer assay, panel result; conditions: for LC50 / GI50: Homo sapiens; for LC50: 50% net cell death, read-out: mean graph midpoint value (MG_MID) of Log10 LC50 (converted); for mean graph midpoint value (MG_MID) of log10 TGI: total inhibition of net cell growth
Method: as §1

[21] = test system: Melanoma cancer cell lines; assay: SRB anticancer assay, panel result; conditions: for LC50 / GI50: Homo sapiens; for LC50: 50% net cell death, read-out: mean graph midpoint value (MG_MID) of Log10 LC50 (converted); for mean graph midpoint value (MG_MID) of log10 TGI: total inhibition of net cell growth
Method: as §1

[22] = test system: Non-small cell lung cancer cell lines; assay: SRB anticancer assay, panel result; conditions: for LC50 / GI50: Homo sapiens; for LC50: 50% net cell death, read-out: mean graph midpoint value (MG_MID) of Log10 LC50 (converted); for mean graph midpoint value (MG_MID) of log10 TGI: total inhibition of net cell growth
Method: as §1

[23] = test system: Ovarian cancer cell lines; assay: SRB anticancer assay, panel result; conditions: for LC50 / GI50: Homo sapiens; for LC50: 50% net cell death, read-out: mean graph midpoint value (MG_MID) of Log10 LC50 (converted); for mean graph midpoint value (MG_MID) of log10 TGI: total inhibition of net cell growth
Method: as §1

[24] = test system: Prostate cancer cell lines; assay: SRB anticancer assay, panel result; conditions: for LC50 / GI50: Homo sapiens; for LC50: 50% net cell death, read-out: mean graph midpoint value (MG_MID) of Log10 LC50 (converted); for mean graph midpoint value (MG_MID) of log10 TGI: total inhibition of net cell growth
Method: as §1

[25] = test system: Renal cancer cell lines; assay: SRB anticancer assay, panel result; conditions: for CC50 / GI50: Homo sapiens; for CC50: 50% net cell death, read-out: mean graph midpoint value (MG_MID) of Log10 LC50 (converted); for mean graph midpoint value (MG_MID) of log10 TGI: total inhibition of net cell growth
Method: as §1

[26] = Breast panel, read-out: mean graph midpoint value (MG_MID) of Log10 GI50 (converted)
[27] = six breast cancer cell lines, exposure at least 48 h, read-out: GI50, range over the panel
[28] = CNS panel, read-out: mean graph midpoint value (MG_MID) of Log10 GI50 (converted)
[29] = six CNS cancer cell lines, exposure at least 48 h, read-out: GI50, range over the panel
[30] = Colon panel, read-out: mean graph midpoint value (MG_MID) of Log10 GI50 (converted)
[31] = seven colon cancer cell lines, exposure at least 48 h, read-out: GI50, range over the panel
[32] = Leukemia panel, read-out: mean graph midpoint value (MG_MID) of Log10 GI50 (converted)
[33] = six leukemia cancer cell lines, exposure at least 48 h, read-out: GI50, range over the panel
[34] = Melanoma panel, read-out: mean graph midpoint value (MG_MID) of Log10 GI50 (converted)
[35] = nine melanoma cancer cell lines, exposure at least 48 h, read-out: GI50, range over the panel
[36] = Non-small cell lung panel, read-out: mean graph midpoint value (MG_MID) of Log10 GI50 (converted)
[37] = nine Non-small cell lung cancer cell lines, exposure at least 48 h, read-out: GI50, range over the panel
[38] = Ovarian panel, read-out: mean graph midpoint value (MG_MID) of Log10 GI50 (converted)
[39] = seven ovarian cancer cell lines, exposure at least 48 h, read-out: GI50, range over the panel
[40] = Prostate panel, read-out: mean graph midpoint value (MG_MID) of Log10 GI50 (converted)
[41] = two prostate cancer cell lines (PC-3, DU-145), exposure at least 48 h, read-out: GI50, range over the panel
[42] = Renal panel, read-out: mean graph midpoint value (MG_MID) of Log10 GI50 (converted)
[43] = eight renal cancer cell lines, exposure at least 48 h, read-out: GI50, range over the panel

SMILES: COc1cc(OC)c2sc(-c3ccc(-n4cncc4-c4ccc(OC)c(OC)c4)cc3)nc2c1 [Compound 6e, 2-(4-(5-(3,4-Dimethoxyphenyl)-1H-imidazol-1-yl)phenyl)-5,7-dimethoxybenzo[d]thiazole]
- GI50 [1]: 5.88 µM
- GI50 [2]: 3.03 µM
- GI50 [3]: 6.06 µM
- GI50 [4]: 5.26 µM
- GI50 [5]: 6.8 µM
- GI50 [6]: 7 µM
- GI50 [7]: > 100 µM
- GI50 [8]: 9.19 µM
- GI50 [9]: 3.85 µM
- GI50 [10]: 4.21 µM
- GI50 [11]: > 100 µM
- GI50 [12]: > 100 µM
- GI50 [13]: > 100 µM
- GI50 [14]: 27.9 µM
- GI50 [15]: > 100 µM
- GI50 [16]: 3.61 µM
- mean graph midpoint value (MG_MID) of log10 TGI ([17]; Breast panel): >−4.0
- CC50 ([17]; Breast panel): > 100 µM
- GI50 [17, 26]: 7.41 µM
- GI50 [17, 27]: 3.78 to 28.4 µM
- mean graph midpoint value (MG_MID) of log10 TGI ([18]; CNS panel): −4.06
- CC50 ([18]; CNS panel): > 100 µM
- GI50 [18, 28]: 19.1 µM
- GI50 [18, 29]: 7 to 9.96 µM
- mean graph midpoint value (MG_MID) of log10 TGI ([19]; Colon panel): >−4.0
- LC50 ([19]; Colon panel): > 100 µM
- GI50 [19, 30]: 25.1 µM
- GI50 [19, 31]: 5.48 to 7.13 µM
- LC50 ([20]; Leukemia panel): > 100 µM
- GI50 [20, 32]: 16.2 µM
- GI50 [20, 33]: 3.03 to 5.88 µM
- mean graph midpoint value (MG_MID) of log10 TGI ([20]; Leukemia panel): >−4.0
- LC50 ([21]; Melanoma panel): > 100 µM
- GI50 [21, 34]: 40.7 µM
- GI50 [21, 35]: 3.61 to 59.8 µM
- mean graph midpoint value (MG_MID) of log10 TGI ([21]; Melanoma panel): >−4.0
- LC50 ([22]; Non-small cell lung panel): > 100 µM
- GI50 [22, 36]: 22.9 µM
- GI50 [22, 37]: 5.26 to 41.8 µM
- mean graph midpoint value (MG_MID) of log10 TGI ([22]; Non-small cell lung panel): −4.01
- LC50 ([23]; Ovarian panel): > 100 µM
- GI50 [23, 38]: 29.5 µM
- GI50 [23, 39]: 3.85 to 56.1 µM
- mean graph midpoint value (MG_MID) of log10 TGI ([23]; Ovarian panel): >−4.0
- LC50 ([24]; Prostate panel): > 100 µM
- GI50 [24, 40]: 10.2 µM
- GI50 [24, 41]: 3.66 to 27.9 µM
- mean graph midpoint value (MG_MID) of log10 TGI ([24]; Prostate panel): >−4.0
- CC50 ([25]; Renal panel): > 100 µM
- GI50 [25, 42]: 25.1 µM
- GI50 [25, 43]: 2.15 to 3.17 µM
- mean graph midpoint value (MG_MID) of log10 TGI ([25]; Renal panel): >−4.0

SMILES: COc1cc(OC)c2sc(-c3ccc(-n4cncc4-c4cc(OC)c(OC)c(OC)c4)cc3)nc2c1 [Compound 6f, 5,7-Dimethoxy-2-(4-(5-(3,4,5-trimethoxyphenyl)-1H-imidazol-1-yl)phenyl)benzo[d]thiazole]
- GI50 [1]: 3.83 µM
- GI50 [2]: 3.24 µM
- GI50 [3]: 4.67 µM
- GI50 [4]: 3.27 µM
- GI50 [5]: 4.62 µM
- GI50 [6]: 4.42 µM
- GI50 [7]: 8.59 µM
- GI50 [8]: 4.15 µM
- GI50 [9]: 3.26 µM
- GI50 [10]: 3.25 µM
- GI50 [11]: 5.65 µM
- GI50 [12]: 7.38 µM
- GI50 [13]: 9.4 µM
- GI50 [14]: > 100 µM
- GI50 [15]: 5.4 µM
- GI50 [16]: 2.46 µM
- mean graph midpoint value (MG_MID) of log10 TGI ([17]; Breast panel): >−4.0
- CC50 ([17]; Breast panel): > 100 µM
- GI50 [17, 26]: 3.8 µM
- GI50 [17, 27]: 3.27 to 5.23 µM
- mean graph midpoint value (MG_MID) of log10 TGI ([18]; CNS panel): >−4.0
- CC50 ([18]; CNS panel): > 100 µM
- GI50 [18, 28]: 15.8 µM
- GI50 [18, 29]: 4.15 to 8.59 µM
- mean graph midpoint value (MG_MID) of log10 TGI ([19]; Colon panel): >−4.0
- LC50 ([19]; Colon panel): > 100 µM
- GI50 [19, 30]: 7.41 µM
- GI50 [19, 31]: 3.92 to 5.96 µM
- LC50 ([20]; Leukemia panel): > 100 µM
- GI50 [20, 32]: 3.89 µM
- GI50 [20, 33]: 3.24 to 5.39 µM
- mean graph midpoint value (MG_MID) of log10 TGI ([20]; Leukemia panel): >−4.0
- LC50 ([21]; Melanoma panel): > 100 µM
- GI50 [21, 34]: 6.61 µM
- GI50 [21, 35]: 2.46 to 7.91 µM
- mean graph midpoint value (MG_MID) of log10 TGI ([21]; Melanoma panel): >−4.0
- LC50 ([22]; Non-small cell lung panel): > 100 µM
- GI50 [22, 36]: 11.2 µM
- GI50 [22, 37]: 3.27 to 75.9 µM
- mean graph midpoint value (MG_MID) of log10 TGI ([22]; Non-small cell lung panel): >−4.0
- LC50 ([23]; Ovarian panel): > 100 µM
- GI50 [23, 38]: 16.6 µM
- GI50 [23, 39]: 3.25 to 5.87 µM
- mean graph midpoint value (MG_MID) of log10 TGI ([23]; Ovarian panel): >−4.0
- LC50 ([24]; Prostate panel): > 100 µM
- GI50 [24, 40]: 16.2 µM
- GI50 [24, 41]: 2.54 µM
- mean graph midpoint value (MG_MID) of log10 TGI ([24]; Prostate panel): >−4.0
- CC50 ([25]; Renal panel): > 100 µM
- GI50 [25, 42]: 6.61 µM
- GI50 [25, 43]: 1.83 to 9.4 µM
- mean graph midpoint value (MG_MID) of log10 TGI ([25]; Renal panel): >−4.0
